From PubChem BioAssay (NCI) come the findings set out here.

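Five compound concentrations were applied to cells in 96-well plates for 48 hours; endpoints were derived by simple linear interpolation of the resulting dose-response curve. Abbreviation: GI50, concentration required for 50% inhibition of growth. TGI is the concentration that stops growth completely.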

Test systems include SF-295 CNS; CAKI-1 renal; T-47D breast; HOP-92 NSCLC; HOP-62 NSCLC; K-562 leukemia; OVCAR-5 ovarian; HT29 colon; COLO 205 colon; SF-539 CNS.
Holding throughout (assay): growth of human tumour cells (NCI), 48 h

Turning to `O=c1[nH]c2[nH]c(=S)[nH]c(=S)c2[nH]1`, the TGI with SF-295 CNS, with CAKI-1 renal, in the experiment on T-47D breast, in the experiment with HOP-92 NSCLC, in the experiment with HOP-62 NSCLC and in the experiment with K-562 leukemia was over 100 µM throughout. For the same compound, the TGI in the experiment with OVCAR-5 ovarian and in the experiment with HT29 colon was over 100 µM in each case.

Turning to `COc1ccc2nc3cc(Cl)ccc3c(NC(C)CCCN(CCCl)CCCl)c2c1` (stereo unspecified), the TGI is 10.6 µM in the experiment on SF-295 CNS; 2.15 µM with COLO 205 colon; 13.9 µM in the experiment on CAKI-1 renal; 3 µM in the experiment on SF-539 CNS; 3.62 µM in the experiment on HOP-92 NSCLC; 7.38 µM with HOP-62 NSCLC. Besides, the TGI came out at 2.3 µM in the experiment on K-562 leukemia, 8 µM in the experiment on OVCAR-5 ovarian and 2.81 µM with HT29 colon.

For `O=C1C(Cl)N(c2ccccc2Cl)C1c1c[nH]c2ccccc12` (stereo unspecified), the TGI with SF-295 CNS, with COLO 205 colon, in the experiment with SF-539 CNS, with HOP-92 NSCLC, with HOP-62 NSCLC and in the experiment with K-562 leukemia was over 100 µM throughout. The same compound came in with a TGI with HT29 colon of over 100 µM.

Regarding `CCN(CC)CCNc1ccc2ncn3c4ccc(O)cc4c(=O)c1c23`, the TGI with SF-295 CNS worked out at 15.1 µM; in the experiment with COLO 205 colon it was 14.7 µM; in the experiment on CAKI-1 renal, 2.08 µM; in the experiment with T-47D breast, 30.7 µM; in the experiment with SF-539 CNS, 16.9 µM; with HOP-92 NSCLC, 12.8 µM. For the same compound, the TGI was 11.6 µM in the experiment on HOP-62 NSCLC, 34.4 µM with K-562 leukemia, 17.4 µM in the experiment with OVCAR-5 ovarian and 7.06 µM with HT29 colon.

As for `O=C(CSCC(=O)N/N=C/c1cccc(O)c1)N/N=C/c1cccc(O)c1`, the TGI in the experiment with SF-295 CNS, in the experiment with COLO 205 colon, in the experiment on CAKI-1 renal, in the experiment with T-47D breast, in the experiment with SF-539 CNS and in the experiment on HOP-92 NSCLC was over 100 µM throughout. Also, the TGI in the experiment with HOP-62 NSCLC, with K-562 leukemia, with OVCAR-5 ovarian and in the experiment with HT29 colon was over 100 µM in each case.

As for `O=C1c2ccccc2C(=O)c2[nH]cnc21`, the TGI in the experiment on SF-295 CNS, with CAKI-1 renal, in the experiment with SF-539 CNS, in the experiment with HOP-62 NSCLC, in the experiment on K-562 leukemia and in the experiment with HT29 colon was over 100 µM in each case.

For `O=C1c2cc(O)c(O)cc2O[C@H](c2ccc(O)c(O)c2)[C@H]1O`, the TGI in the experiment on SF-295 CNS, in the experiment on COLO 205 colon, with CAKI-1 renal, in the experiment on T-47D breast, with SF-539 CNS and in the experiment with HOP-92 NSCLC was over 100 µM in each case. The TGI with HOP-62 NSCLC, in the experiment with K-562 leukemia, in the experiment with OVCAR-5 ovarian and in the experiment with HT29 colon was over 100 µM in each case.

For the compound `O=C1c2cc3c(cc2-c2c1c1ccc(Cl)cc1c(=O)n2C[C@H](O)CO)OCO3`, the GI50 with SF-295 CNS was under 0.01 µM; with COLO 205 colon it was 0.0954 µM; in the experiment with CAKI-1 renal, under 0.01 µM; in the experiment with T-47D breast it was 0.0315 µM; in the experiment with SF-539 CNS it was 0.0253 µM; with HOP-62 NSCLC, 0.022 µM. Besides, the GI50 in the experiment with K-562 leukemia was 0.0457 µM; in the experiment with OVCAR-5 ovarian, 0.119 µM; in the experiment with HT29 colon, 0.0348 µM. The TGI in the experiment with SF-295 CNS is 0.341 µM; in the experiment with COLO 205 colon, 10.1 µM; in the experiment on CAKI-1 renal it was 0.192 µM; with T-47D breast it was over 100 µM; with SF-539 CNS it was 0.093 µM; in the experiment on HOP-62 NSCLC, 1.51 µM. Moreover, the results for the TGI in the experiment with K-562 leukemia, with OVCAR-5 ovarian and in the experiment with HT29 colon were over 100 µM, 1.15 µM and over 100 µM, respectively.

As for `Oc1ccc(C(=C(Br)c2ccccc2)c2ccc(O)cc2)cc1`, the TGI in the experiment on SF-295 CNS stood at 25.6 µM; with CAKI-1 renal it was 30.8 µM; in the experiment on T-47D breast, 46.2 µM; in the experiment with SF-539 CNS, 18.8 µM; with HOP-92 NSCLC, 22.5 µM; in the experiment with HOP-62 NSCLC, 22.2 µM. Further, the values for the TGI in the experiment with K-562 leukemia, in the experiment on OVCAR-5 ovarian and with HT29 colon were 9.07 µM, 31.2 µM and 4.78 µM, respectively.

`C=CCNC(=O)C(C)C1CCC2(C)C=CC(=O)C(C)=C2C1O` (stereo unspecified): the TGI with SF-295 CNS, with COLO 205 colon, in the experiment with CAKI-1 renal, with SF-539 CNS, in the experiment with HOP-92 NSCLC and in the experiment on HOP-62 NSCLC was over 100 µM in each case. The TGI with K-562 leukemia, with OVCAR-5 ovarian and in the experiment with HT29 colon was over 100 µM throughout.
